From patent publication US6334944B1, “Process for producing an amino acid-N,N-diacetic acid and its salts” (Showa Denko K.K., priority 1998, dated 2002)

Assay: Hygroscopicity and redissolution of dried powder or crystal
Assay type: physicochemical
Conditions: for Hygroscopicity: dried powder or crystal
Procedure: The powder contained 9.98% of calcium.
The crystal was dried in air at 25° C. to reduce the moisture content to 0.7%.

Molecule | Hygroscopicity | Dissolution of powder in water (spray-dried powder)
O=C([O-])CCC(C(=O)[O-])N(CC(=O)[O-])CC(=O)[O-].[Fe+3].[NH4+] (stereo not drawn) [Example 22, ammonium ferric salt of glutamic acid-N,N-diacetic acid] | free of hygroscopicity | 
calcium disodium glutamic acid-N,N-diacetate [Example 13] | free of hygroscopicity | readily dissolved in water
